SMILES strings stand for the structures.

In the assay the target is T1, PARP (TREVIGEN) (Homo sapiens, UniProt P09874).
T1 construct: purchased TREVIGEN
Description: Enzyme assay in vitro (PARP inhibitory activity, 3H-NAD incorporation). The format is biochemical. To be noted: 50% inhibitory concentration, control (distilled water) = 100%; reaction 10 minutes at room temperature. On the procedure:
The below procedure was carried out with 96 well plate at room temperature. In a final volume of […], the reaction mixture contained each 10 μL of 500 mM Tris/HCl (pH 8.0, WAKO), 100 mM MgCl2, 50 mM dithiothreitol (sigma), 1 mg/mL activated DNA and 1 mM NAD (containing ^3H-NAD). The 10 μL of test compound was added to the reaction mixture and the reaction was started by addition of 10 μL of 0.1 U/μL PARP (TREVIGEN). The reaction was terminated at 10 minutes by addition of 100 μL of 20% trichloroacetic acid. Poly(ADP-ribose), which is the reaction product, was collected on a glass fiber filter (GF/C, PACKARD). The radioactivity was measured by topcount (PACKARD). Inhibitory activity of the compound was represented by 50% inhibitory concentration calculated as 100% of control (distilled water).

T1 sequence (P09874 whole entry): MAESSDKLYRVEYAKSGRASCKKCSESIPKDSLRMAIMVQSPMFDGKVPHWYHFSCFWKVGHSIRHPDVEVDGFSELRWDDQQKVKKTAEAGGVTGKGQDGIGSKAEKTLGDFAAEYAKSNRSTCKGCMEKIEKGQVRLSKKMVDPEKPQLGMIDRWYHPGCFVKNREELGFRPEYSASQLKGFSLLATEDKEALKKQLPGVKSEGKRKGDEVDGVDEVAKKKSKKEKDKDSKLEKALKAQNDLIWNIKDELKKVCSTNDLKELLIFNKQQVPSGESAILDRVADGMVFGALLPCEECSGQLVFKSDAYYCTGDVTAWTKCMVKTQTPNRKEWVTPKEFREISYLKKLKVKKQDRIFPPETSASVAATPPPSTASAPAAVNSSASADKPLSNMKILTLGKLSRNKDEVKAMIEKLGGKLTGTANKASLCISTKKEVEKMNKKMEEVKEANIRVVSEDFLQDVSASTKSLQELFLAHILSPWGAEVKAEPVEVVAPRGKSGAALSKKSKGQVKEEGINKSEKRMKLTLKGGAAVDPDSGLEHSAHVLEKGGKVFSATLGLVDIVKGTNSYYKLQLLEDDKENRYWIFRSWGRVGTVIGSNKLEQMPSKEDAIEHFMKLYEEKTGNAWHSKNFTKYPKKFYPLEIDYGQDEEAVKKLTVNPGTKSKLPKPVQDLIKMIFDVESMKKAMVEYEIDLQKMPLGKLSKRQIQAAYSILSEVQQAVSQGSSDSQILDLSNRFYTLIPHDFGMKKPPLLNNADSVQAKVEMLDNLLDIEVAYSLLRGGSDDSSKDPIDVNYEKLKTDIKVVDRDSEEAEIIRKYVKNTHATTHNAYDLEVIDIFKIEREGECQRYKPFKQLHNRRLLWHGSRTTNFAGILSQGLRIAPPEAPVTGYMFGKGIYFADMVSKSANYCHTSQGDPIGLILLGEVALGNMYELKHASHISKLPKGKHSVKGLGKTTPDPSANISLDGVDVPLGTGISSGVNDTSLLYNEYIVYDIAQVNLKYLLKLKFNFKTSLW

Usually IC50 stands for the concentration needed to halve the response being measured. `Nc1cccc(-c2n[nH]c(=O)c3c2NCCC3)c1` [11(4), 8-(3-aminophenyl)-2,3,4,6-tetrahydropyrido[2,3-d]pyridazin-5(1H)-one] showed an IC50 of 100 nM.
`Nc1cc(N)cc(C2=NNC(=O)C3CSCCN23)c1` (stereo not drawn) [6(9), 4-(3,5-diaminophenyl)-6,7,9,9a-tetrahydro[1,4]thiazino[4,3-d][1,2,4]triazin-1(2H)-one]: half-maximal inhibition (IC50) required 610 nM.
Next, `NCCNC(=O)Cc1n[nH]c(=O)c2c1CCCC2` [30(4), 4-(N-(2-aminoethyl)carbamoylmethyl)-5,6,7,8-tetrahydrophthalazin-1(2H)-one]: 290 nM.

These data come from patent US7402580B2, “Fused pyridazine derivative compounds and drugs containing these compounds as the active ingredient” (Ono Pharmaceutical Co., Ltd., priority 2002, dated 2008).
